The source of these data is PubChem BioAssay (NCI).

Common to all, as to assay: inhibition of tumour cell growth, NCI panel, 48 h
The test system of assay [1] is HOP-92 NSCLC.
The subject of assay [2] is SN12C renal.
Assay [3] concerns MOLT-4 leukemia.
The test system of assay [4] is DU-145 prostate.
Assay [5] relates to KM12 colon.
Assay [6] deals with SK-MEL-2 melanoma.
Assay [7] relates to COLO 205 colon.
Assay [8] concerns HOP-62 NSCLC.
For assay [9], the system named is T-47D breast.
The test system of assay [10] is SNB-75 CNS.

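The compound was tested at five concentrations on cells cultured in 96-well plates, with a 48-hour exposure period. GI50 is the concentration that inhibits growth by half. TGI marks complete inhibition of growth.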

Turning to `CCN1C(=O)N(CC)C2C1NN=c1s/c(=C3\C(=O)Nc4ccccc43)c(=O)n12` (configuration not stated), the GI50 in assay [1] is 0.598 µM; in assay [2] it was 0.6 µM; in assay [3] it was 0.549 µM; in assay [4] it was 0.492 µM; in assay [5], 0.452 µM; in assay [6], 1.34 µM. In addition, the GI50 in assay [7] was 0.445 µM; in assay [8], 0.734 µM; in assay [9] it was 0.42 µM; in assay [10], less than 0.0447 µM. Moreover, the TGI in assay [1] is 32.5 µM; in assay [2] it was more than 100 µM; in assay [3] it was more than 100 µM; in assay [4] it was 33.6 µM; in assay [5] it was more than 100 µM; in assay [6] it was 30 µM. In addition, the TGI in [7] was more than 57.5 µM; in assay [8] it was 25.8 µM; in assay [9] it was more than 100 µM; in [10] it was 0.429 µM.

Regarding `N[C@H]1CCC[C@@H](O)C1O` (some centres not stated), the TGI in assay [2], in [3], in [4], in [5], in assay [6] and in [7] was more than 100 µM each time. In addition, the TGI in [8], in [9] and in assay [10] was more than 100 µM each time. Also, in assay [3], the GI50 was more than 100 µM.

On to `CC(C)(C)OC(=O)N(CCCCN(CCCn1c2c(c3ccccc3c1=O)C(=O)c1ccccc1-2)C(=O)OC(C)(C)C)CCCn1c2c(c3ccccc3c1=O)C(=O)c1ccccc1-2`, for which the GI50 is 97 µM in assay [1]; 36 µM in [2]; more than 100 µM in [3]; 48.1 µM in assay [4]; 79.6 µM in assay [5]; 65.1 µM in assay [6]. In addition, the GI50 in assay [7] is more than 100 µM; in [8], 11 µM; in assay [9] it was more than 100 µM; in [10], more than 100 µM. In addition, the TGI in [1], in assay [2], in assay [3], in assay [4], in [5] and in assay [6] was more than 100 µM in each case. Besides, the TGI in assay [7] was more than 100 µM; in [8], 73.8 µM; in assay [9], more than 100 µM; in assay [10] it was more than 100 µM.

For the molecule `COc1ccc(C2=C(OC(C)=O)c3cccn3-c3ccc(Cl)cc3S2)cc1`, the TGI is 6.07 µM in [1]; more than 10 µM in assay [2]; 7.47 µM in [3]; more than 10 µM in [4]; 9.75 µM in assay [5]; more than 10 µM in assay [7]. For the same molecule, the TGI in assay [8], in [9] and in assay [10] was more than 10 µM each time.

`O=C1c2ccccc2C(=O)c2c1ccc1conc21`: the TGI in assay [1] was found to be 3.04 µM; in assay [2], 3.61 µM; in assay [3], 6.25 µM; in [4], 7.07 µM; in [5], 7.45 µM; in [6], 7.14 µM. Also, the TGI amounted to 12.3 µM in assay [7], 9.11 µM in [8], 2.02 µM in assay [9] and 20.5 µM in assay [10].

With `CN(C)S(=O)(=O)c1cccc(C(=O)Nc2nc(-c3ccc(F)c(F)c3)cs2)c1`, the GI50 is 9.41 µM in assay [1]; 25.9 µM in assay [2]; 3.52 µM in assay [3]; 25.9 µM in assay [4]; 24.2 µM in assay [5]; 19.4 µM in assay [6]. For the same molecule, the GI50 in assay [7] was 35.6 µM; in assay [8], 12.7 µM; in [9] it was 3.77 µM; in assay [10], 4.96 µM. In addition, the TGI is more than 74.3 µM in assay [1]; more than 100 µM in assay [2]; more than 55.2 µM in assay [3]; more than 100 µM in assay [4]; more than 100 µM in [5]; more than 100 µM in [6]. In addition, the TGI in [7] is more than 100 µM; in assay [8], more than 100 µM; in [9], more than 100 µM; in assay [10], more than 60.8 µM.

Regarding `Nc1[nH]nc(Nc2ccccc2)c1-c1nc2ccccc2s1`, the GI50 in assay [1] was 1.4 µM; in assay [2], 1.58 µM; in assay [3], 0.683 µM; in assay [4], 3.02 µM; in [5], 1.61 µM; in assay [6], 2.77 µM. The GI50 in assay [7] is 1.89 µM; in [8], 2.08 µM; in assay [9], 2.2 µM; in assay [10], 2.39 µM. Besides, the TGI in assay [1] amounted to 3.77 µM; in [2], 3.24 µM; in [3], 7.81 µM; in [4] it was 11.6 µM; in assay [5] it was 3.6 µM; in assay [6], 8.9 µM. Also, the TGI in assay [7] worked out at 3.92 µM; in assay [8] it was 5.87 µM; in [9] it was 11.2 µM; in [10] it was 10.9 µM.

In the case of `O=C1c2ccccc2C(=O)N1c1ccc(Cc2ccc(N3C(=O)c4ccccc4C3=O)cc2)cc1`, the TGI in assay [1], in assay [2], in [3], in assay [4], in assay [5] and in assay [6] was more than 100 µM throughout. The TGI in [7], in assay [8], in [9] and in assay [10] was more than 100 µM each time.

Regarding `COc1ccc([N+](=O)[O-])c2c(NCCCN(C)C)c(C)c(C)nc12`, the TGI in assay [1], in assay [2], in assay [3], in assay [4], in assay [5] and in [6] was more than 100 µM each time. The TGI in [7], in assay [8], in [9] and in assay [10] was more than 100 µM throughout.

For the molecule `CCCC(=O)Oc1ccc(/C(=C(\C)c2ccc(Cl)cc2)c2ccc(OCCN(CC)CC)cc2)cc1`, the GI50 in assay [1] was 7.76 µM; in assay [2], 4.55 µM; in [3], 3.09 µM; in [4], 3.46 µM; in assay [5], 3.05 µM; in assay [6], 2.83 µM. In addition, the GI50 in assay [7] is 1.82 µM; in assay [8] it was 2.16 µM; in assay [9], 1.39 µM; in assay [10], 12.8 µM. The TGI in assay [1] worked out at 23.4 µM; in [2], 18.1 µM; in [3] it was 10.5 µM; in assay [4] it was 12.4 µM; in [5] it was 10.7 µM; in assay [6] it was 5.93 µM. For the same molecule, the TGI in [7] worked out at 3.66 µM; in assay [8], 4.68 µM; in assay [9], 4.88 µM; in assay [10], 30.2 µM.

As for `CNc1c2ccccc2nc2occ(Cl)c12`, the GI50 was 26.9 µM in [1]; 52.6 µM in assay [2]; 13.3 µM in assay [3]; 41.5 µM in [4]; 32.6 µM in assay [5]; more than 100 µM in assay [6]. The values for the GI50 in assay [7], in assay [8] and in assay [9] were 30.6 µM, 40.7 µM and 66.1 µM, respectively. Moreover, the TGI in assay [1] was more than 100 µM; in [2], more than 100 µM; in assay [3], 64.6 µM; in assay [4], more than 100 µM; in assay [5], more than 100 µM; in [6], more than 100 µM. Also, the TGI in assay [7], in [8] and in assay [9] was more than 100 µM throughout.

Turning to `COc1ccc2c(=O)c(-c3cc(OC)c(OC)cc3OC)coc2c1`, the TGI in assay [2] was more than 100 µM; in assay [3], more than 100 µM; in [4], more than 100 µM; in assay [5] it was more than 100 µM; in assay [6], more than 100 µM; in [7] it was 42.6 µM. In addition, the TGI is more than 100 µM in assay [8], more than 100 µM in assay [9] and 8.93 µM in assay [10].

For `COc1ccc(/C=C\c2cc(OC)c(OC)c(OC)c2)cc1NC(=O)/C=C/c1ccc(OC)c(OC)c1`, the GI50 in [1] was more than 100 µM; in assay [2], 5.43 µM; in [3] it was 6.66 µM; in assay [4], 4.93 µM; in assay [5] it was 3.91 µM; in assay [6], 5.51 µM. In addition, the values for the GI50 in assay [7], in assay [8] and in assay [9] were 2.05 µM, 5.42 µM and 5.98 µM, respectively. The TGI in assay [1], in [2], in assay [3], in assay [4], in assay [5] and in assay [6] was more than 100 µM in each case. For the same molecule, the TGI in assay [7] is 10.9 µM; in assay [8], more than 100 µM; in [9], more than 100 µM.

On to `CCN(Cc1ccc(Cl)c(Cl)c1)c1ccc2nc(N)nc(N)c2c1C`, for which the GI50 in assay [1] was 0.24 µM; in assay [4], 0.0544 µM; in assay [5] it was 0.048 µM; in [6], 1.48 µM; in assay [7], 0.148 µM; in [9], 0.67 µM. For the same molecule, the GI50 in assay [10] was 0.0945 µM. Besides, the TGI turned out to be 1.82 µM in assay [1]; 2 µM in [4]; 1.67 µM in assay [5]; 3.02 µM in assay [6]; 1.69 µM in [7]; 2.71 µM in assay [9]. For the same molecule, in assay [10], the TGI amounted to 2.01 µM.

Regarding `COC(=O)NC1(NC(=O)OC)NC(=O)c2ccccc2N1`, the TGI in assay [2], in assay [3], in assay [4], in assay [5], in assay [6] and in assay [7] was more than 100 µM throughout. The TGI in assay [8], in assay [9] and in assay [10] was more than 100 µM throughout.

Consider `OCc1c(-c2cccs2)oc(-c2cccs2)c1CO`, for which the GI50 was 42.8 µM in assay [1]; 27.9 µM in assay [3]; 67.9 µM in assay [4]; 21.3 µM in assay [5]; 35.9 µM in [7]; more than 100 µM in [8]. In addition, the GI50 in assay [9] is 17.3 µM; in assay [10], 69.4 µM. The TGI in assay [1], in [3], in assay [4], in assay [5], in assay [7] and in assay [8] was more than 100 µM in each case. Moreover, the TGI in assay [9] and in assay [10] was more than 100 µM in each case.

On to `COc1ccc(-c2cn(C)c3c2-n2cccc2C3=O)cc1O`, for which the GI50 in assay [1] is 6.8 µM; in assay [2] it was 10.8 µM; in assay [3], 7.21 µM; in [4], 12.5 µM; in assay [5], 3.71 µM; in assay [6], 19.7 µM. The GI50 in [7] was 17.1 µM; in [8], 5.93 µM; in [9] it was 4.78 µM. In addition, the TGI was more than 100 µM in [1]; 41.2 µM in [2]; 82.2 µM in assay [3]; 32.9 µM in assay [4]; 16.4 µM in assay [5]; 55.3 µM in assay [6]. For the same molecule, the TGI in assay [7] stood at 38.8 µM; in assay [8], 29.3 µM; in assay [9], 28.9 µM.

With `O=[N+]([O-])c1ccc(Sc2cccc[n+]2[O-])c2nonc12`, the GI50 in assay [1] is 5.45 µM; in assay [2], 8.04 µM; in assay [4], 3.55 µM; in assay [5], 4.02 µM; in assay [6] it was 13.5 µM; in assay [7] it was 0.949 µM. In addition, the GI50 in [8] is 28 µM; in assay [9], 1.69 µM; in assay [10], 11.1 µM. The TGI in [1] came to 23.7 µM; in [2], 22.6 µM; in assay [4], 13.1 µM; in [5], 14.4 µM; in assay [6] it was 36.3 µM; in assay [7] it was 2.51 µM. In addition, the TGI in assay [8] is more than 56.4 µM; in [9] it was 6.5 µM; in assay [10], 39.6 µM.

For the molecule `O=C1/C(=C/c2ccc(F)cc2)COc2ccc(O)c(O)c21`, the GI50 in [2] was 1.26 µM; in assay [3], 1.37 µM; in [4], 3.02 µM; in [5] it was 1.99 µM; in assay [6], 4.61 µM; in assay [7], 2.76 µM. The results for the GI50 in assay [8], in [9] and in assay [10] were 3.43 µM, 2.4 µM and 1.71 µM, respectively. The TGI is 3.79 µM in assay [2]; more than 100 µM in [3]; 43.6 µM in assay [4]; 6.82 µM in assay [5]; 47.5 µM in assay [6]; 10.3 µM in [7]. In addition, the TGI in assay [8] is 17.8 µM; in assay [9], 9.67 µM; in assay [10], more than 100 µM.
